ChEMBL document CHEMBL5537200, “Discovery of Artemisinins as Microsomal Prostaglandins Synthase-2 Inhibitors for the Treatment of Colorectal Cancer via Chemoproteomics” (J Med Chem, 2024)
pIC50: −log10 of the molar value. Active and inactive are the calls of the source. The calls are words filed in the database; no cut-off is given here.

Key:
HCT-116 [1] = test: Growth inhibition of human HCT-116 cells incubated for 24 hrs by Cell-titer Glo luminescent assay; type: functional
HCT-116 [2] = test: Growth inhibition of human HCT-116 cells incubated for 48 hrs by Cell-titer Glo luminescent assay; type: functional
HCT-116 [3] = test: Growth inhibition of human HCT-116 cells incubated for 72 hrs by Cell-titer Glo luminescent assay; type: functional
[4] = target: T1, Prostaglandin E synthase 2 (Homo sapiens, UniProt Q9H7Z7); test: Inhibition of mPGES-2 in human HCT-116 cells assessed as downregulation of mPGES-2 expression at 10 uM incubated for 3 hrs by SDS-PAGE based pull-down assay; type: cell-based
[5] = target: T1, Prostaglandin E synthase 2; test: Inhibition of mPGES-2 in human HCT-116 cells assessed as downregulation of mPGES-2 expression at 10 uM incubated for 3 hrs under UV irradiation by SDS-PAGE based pull-down assay; type: cell-based
[6] = target: T1, Prostaglandin E synthase 2; test: Binding affinity to heme-free recombinant mPGES-2 (unknown origin) at 1 uM under UV irradiation by coomassie blue staining assay
[7] = target: T1, Prostaglandin E synthase 2; test: Binding affinity to heme-free recombinant mPGES-2 (unknown origin) at 1 uM in presence of NaVc under UV irradiation by coomassie blue staining assay
[8] = target: T1, Prostaglandin E synthase 2; test: Binding affinity to heme-free recombinant mPGES-2 (unknown origin) at 1 uM in presence of H2O2 under UV irradiation by coomassie blue staining assay
[9] = target: T1, Prostaglandin E synthase 2; test: Binding affinity to heme-free recombinant mPGES-2 (unknown origin) at 1 uM incubated for 1 hr followed by ART addition for 30 mins by competitive labeling gel fluorescence assay; details: time 1.5 hrs
[10] = target: T1, Prostaglandin E synthase 2; test: Binding affinity to heme-free recombinant mPGES-2 (unknown origin) at 1 uM incubated for 1 hr pretreated with PGH2 addition by competitive labeling gel fluorescence assay
[11] = target: T1, Prostaglandin E synthase 2; test: Binding affinity to heme-free recombinant mPGES-2 (unknown origin) at 1 uM incubated for 1 hr pretreated with GSH addition by competitive labeling gel fluorescence assay
[12] = target: T1, Prostaglandin E synthase 2; test: Binding affinity to heme-bound recombinant mPGES-2 (unknown origin) at 1 uM in presence of NaVc under UV irradiation by coomassie blue staining assay
[13] = target: T1, Prostaglandin E synthase 2; test: Binding affinity to heme-bound recombinant mPGES-2 (unknown origin) at 1 uM in presence of H2O2 under UV irradiation by coomassie blue staining assay
[14] = target: T1, Prostaglandin E synthase 2; test: Binding affinity to heme-bound recombinant mPGES-2 (unknown origin) at 1 uM in presence of H2O2 without UV irradiation by coomassie blue staining assay
[15] = target: T1, Prostaglandin E synthase 2; details: HCT-116, dose 20.0 µM, time 2.0 hrs
HCT-116 [16] = test: Antiproliferative activity against human HCT-116 cells assessed as inhibition of cell growth by Cell-titer Glo luminescent assay; type: functional, cell-based
HCT-116 [17] = test: Antiproliferative activity against human HCT-116 cells assessed as inhibition of cell growth incubated for 48 hrs by Cell-titer Glo luminescent assay; type: functional, cell-based
SW-620 [18] = test: Antiproliferative activity against human SW620 cells assessed as inhibition of cell growth incubated for 48 hrs by Cell-titer Glo luminescent assay; type: functional, cell-based
HCT-116 [19] = test: Antiproliferative activity against human HCT-116 cells assessed as inhibition of cell growth at 50 uM incubated for 48 hrs in presence of aminolevulinic acid by Cell-titer Glo luminescent assay; type: functional, cell-based
SW-620 [20] = test: Antiproliferative activity against human SW620 cells assessed as inhibition of cell growth at 50 uM incubated for 48 hrs in presence of aminolevulinic acid by Cell-titer Glo luminescent assay; type: functional, cell-based
Caco-2 = test: Antiproliferative activity against human Caco-2 cells assessed as inhibition of cell growth at 50 uM incubated for 48 hrs in presence of aminolevulinic acid by Cell-titer Glo luminescent assay; type: functional, cell-based
[21] = target: T1, Prostaglandin E synthase 2; test: Inhibition of heme-free recombinant mPGES-2 (unknown origin) pre-incubated with compound for 15 mins followed by PGH2 addition measured after 1 min by ELISA
[22] = target: T1, Prostaglandin E synthase 2; test: Inhibition of heme-free recombinant mPGES-2 (unknown origin) pre-incubated with compound for 15 mins followed by PGH2 addition measured after 5 min by ELISA
[23] = target: T1, Prostaglandin E synthase 2; test: Inhibition of heme-free recombinant mPGES-2 (unknown origin) pre-incubated with compound for 15 mins followed by PGH2 addition measured after 10 min by ELISA
[24] = target: T1, Prostaglandin E synthase 2; test: Inhibition of heme-free recombinant mPGES-2 (unknown origin) pre-incubated with compound for 15 mins followed by PGH2 addition measured after 60 min by ELISA
HCT-116 [25] = test: Antiproliferative activity against human HCT-116 cells assessed as reduction in cell growth at 10 to 20 uM by Cell-titer Glo luminescent assay; type: functional, cell-based; details: dose 10-20 µM
HCT-116 [26] = test: Antiproliferative activity against human HCT-116 cells assessed as reduction in cell growth at 50 uM by Cell-titer Glo luminescent assay; type: functional, cell-based
HCT-116 [27] = test: Antiproliferative activity against SiRNA mediated mPGES-2 knockdown human HCT-116 cells assessed as reduction in cell growth by Cell-titer Glo luminescent assay; type: functional, cell-based
[28] = target: T1, Prostaglandin E synthase 2; test: Inhibition of heme-free recombinant mPGES-2 (unknown origin) pre-incubated with compound for 15 mins followed by PGH2 addition measured after 30 min by ELISA
[29] = target: T1, Prostaglandin E synthase 2
Description: Displacement of ART-P1 from heme-free recombinant mPGES-2 (unknown origin) assessed as inhibition of ART-P1 binding to mPGES-2 incubated for 1 hr followed by ART-P1 addition for 30 mins by competitive labeling gel fluorescence assay

HCT-116 [30] = test: cells; details: Homo sapiens, HCT-116, 48 h, read-out: INH
Description: Antiproliferative activity against human HCT-116 cells assessed as inhibition of cell growth at 50 uM incubated for 48 hrs in presence of succinylacetone by Cell-titer Glo luminescent assay relative to control

SW-620 [31] = test: cells; details: Homo sapiens, SW-620, 48 h, read-out: INH
Description: Antiproliferative activity against human SW620 cells assessed as inhibition of cell growth at 50 uM incubated for 48 hrs in presence of succinylacetone by Cell-titer Glo luminescent assay relative to control

[32] = target: T1, Prostaglandin E synthase 2; test: Inhibition of heme-free recombinant mPGES-2 (unknown origin) at 100 uM by dilution assay relative to control

T1 sequence (Q9H7Z7 whole entry): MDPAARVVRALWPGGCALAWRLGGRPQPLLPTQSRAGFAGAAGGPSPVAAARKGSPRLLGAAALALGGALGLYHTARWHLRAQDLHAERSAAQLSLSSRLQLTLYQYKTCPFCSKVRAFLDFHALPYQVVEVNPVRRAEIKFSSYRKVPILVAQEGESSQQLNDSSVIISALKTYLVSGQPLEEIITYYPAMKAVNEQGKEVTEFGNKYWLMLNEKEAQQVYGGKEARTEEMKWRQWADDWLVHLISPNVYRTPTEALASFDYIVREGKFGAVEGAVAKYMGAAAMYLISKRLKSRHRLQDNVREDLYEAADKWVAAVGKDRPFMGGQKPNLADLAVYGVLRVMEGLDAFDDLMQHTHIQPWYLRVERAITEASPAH

C#CCN(CCC[C@H]1O[C@@H]2O[C@]3(C)CC[C@H]4[C@H](C)CC[C@@H]([C@H]1C)[C@@]24OO3)C(=O)CCC1(C)N=N1 showed a GI50 (HCT-116 [1]) of 13.4 µM, a GI50 (HCT-116 [2]) of 5.1 µM and a GI50 (HCT-116 [3]) of 3.9 µM. The inhibition [4] was “Active”, the inhibition [5] was “Active” and the Activity [6] was “Active”. For the same molecule, the Activity [7] was “inactive”, the Activity [8] was “inactive” and the Activity [9] was “inactive”. For the same molecule, the Activity [10] was “inactive”, the Activity [11] was “Active” and the Activity [12] was “Active”. The Activity [13] was “inactive”, the Activity [14] was “inactive” and the Tm [15] was 46.9 °C.
C[C@@H]1CC[C@H]2[C@@H](C)C(=O)O[C@@H]3O[C@@]4(C)CC[C@@H]1[C@]32OO4 [ARTEMISININ] was tested, and the pIC50 (HCT-116 [16]) was 5.14, the Activity (HCT-116 [17]) was “Active” and the Activity (SW-620 [18]) was “Active”. For the same molecule, the Activity (HCT-116 [19]) was “inactive”, the Activity (SW-620 [20]) was “inactive” and the Activity (Caco-2) was “inactive”. For the same molecule, the GI50 (HCT-116 [1]) was 22.5 µM, the GI50 (HCT-116 [2]) was 7.2 µM and the GI50 (HCT-116 [3]) was 4.3 µM. The pIC50 [21] was 4.97, the pIC50 [22] was 5.00 and the pIC50 [23] was 4.99. For the same molecule, the pIC50 [24] was 5.06, the Activity (HCT-116 [25]) was “Active” and the Activity (HCT-116 [26]) was “Active”. For the same molecule, the Activity (HCT-116 [27]) was “inactive”, the pIC50 [28] was 5.05 and the pIC50 [29] was 5.06. For the same molecule, the Tm [15] was 62.5 °C, the inhibition at 50 µM (HCT-116 [30]) was greater than 50% and the inhibition at 50 µM (SW-620 [31]) was greater than 50%.
In the case of C#CCCC1(CCN2CCN(CCC[C@H]3O[C@@H]4O[C@]5(C)CC[C@H]6[C@H](C)CC[C@@H]([C@H]3C)[C@@]46OO5)CC2)N=N1, the GI50 (HCT-116 [1]) was 53.1 µM, the GI50 (HCT-116 [2]) was 35.9 µM and the GI50 (HCT-116 [3]) was 22.5 µM.
CO[C@H]1O[C@@H]2O[C@@]3(C)CC[C@H]4[C@H](C)CC[C@@H]([C@H]1C)[C@@]24OO3 [ARTEMETHER] was tested, and the pIC50 (HCT-116 [16]) was 5.07.
C[C@H]1[C@@H](OC(=O)c2ccccc2)O[C@@H]2O[C@]3(C)CC[C@H]4[C@H](C)CC[C@@H]1[C@@]24OO3 showed a pIC50 (HCT-116 [16]) of 5.41.
C=CC[C@H]1O[C@@H]2O[C@]3(C)CC[C@H]4[C@H](C)CC[C@@H]([C@H]1C)[C@@]24OO3 showed a pIC50 (HCT-116 [16]) of 5.07.
Molecule C[C@H]1[C@@H](CCCN2CCNCC2)O[C@@H]2O[C@]3(C)CC[C@H]4[C@H](C)CC[C@@H]1[C@@]24OO3 has a pIC50 (HCT-116 [16]) of less than 4.30.
Work on C[C@H]1[C@@H](CCCO)O[C@@H]2O[C@]3(C)CC[C@H]4[C@H](C)CC[C@@H]1[C@@]24OO3 yielded a pIC50 (HCT-116 [16]) of 4.42.
With NC(=O)CI the inhibition [32] was “inactive”.
C[C@H]1[C@@H](O)O[C@@H]2O[C@@]3(C)CC[C@H]4[C@H](C)CC[C@@H]1[C@@]24OO3 [ARTENIMOL] showed a pIC50 (HCT-116 [16]) of 4.87.
With C[C@H]1[C@H](OC(=O)CCC(=O)O)O[C@@H]2O[C@@]3(C)CC[C@H]4[C@H](C)CC[C@@H]1[C@@]24OO3 [ARTESUNATE] the pIC50 (HCT-116 [16]) was 6.34.
In the case of C[C@@H]1CC[C@H]2[C@@H](C)C(=O)O[C@@H]3O[C@@]4(C)CC[C@@H]1[C@]32O4 [DEOXYARTEMISININ], the pIC50 (HCT-116 [16]) was less than 4.30, the pIC50 [29] was less than 4.30 and the Tm [15] was 63.4 °C.
